Results on three compounds are retold here after paper PMC7175277, “Hydroxylamine Analogue of Agmatine: Magic Bullet for Arginine Decarboxylase” (Biomolecules, 2020).

Molecules are shown by their SMILES. “Also recorded” adds a separate entry of the source. Read-outs that look alike come from different tables or passages of the source.

Details of series [1]: method as in PMID 7896733. The following applies: 48 h; absence of amine oxidase inhibitor; cited from earlier work.
The target of series [2] is T1, E. coli ADC (Escherichia coli, UniProt P21170).
T1 construct: The kinetic parameters determined for the partially purified biosynthetic ADC from E. coli; endogenous in cells; host or cells: E. coli DH5α (39-53% ammonium sulphate fraction of the lysate, desalted)
T1 sequence (P21170 1-658): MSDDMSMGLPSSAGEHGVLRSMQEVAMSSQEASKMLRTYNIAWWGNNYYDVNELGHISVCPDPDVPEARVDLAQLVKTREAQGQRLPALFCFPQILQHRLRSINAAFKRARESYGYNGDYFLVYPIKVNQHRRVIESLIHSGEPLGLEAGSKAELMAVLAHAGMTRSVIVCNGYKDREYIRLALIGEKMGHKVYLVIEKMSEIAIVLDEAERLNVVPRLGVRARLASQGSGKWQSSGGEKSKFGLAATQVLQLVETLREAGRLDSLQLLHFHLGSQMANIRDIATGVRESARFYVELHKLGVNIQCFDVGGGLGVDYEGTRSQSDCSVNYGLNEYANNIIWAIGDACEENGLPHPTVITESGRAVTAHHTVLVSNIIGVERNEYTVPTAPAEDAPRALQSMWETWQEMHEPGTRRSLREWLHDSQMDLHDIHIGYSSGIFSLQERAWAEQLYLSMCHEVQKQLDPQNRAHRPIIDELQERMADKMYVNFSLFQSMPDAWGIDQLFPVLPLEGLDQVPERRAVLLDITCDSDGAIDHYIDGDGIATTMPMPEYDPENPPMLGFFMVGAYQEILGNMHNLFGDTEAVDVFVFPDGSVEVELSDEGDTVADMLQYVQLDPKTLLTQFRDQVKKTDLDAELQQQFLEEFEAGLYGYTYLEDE
The experiment in a line: E. coli ADC activity assay (HPLC of agmatine). The class given is biochemical. The following applies: 0.1 mM PLP; 15 min preincubation; 0.15 mM L-Arg. As to the method:
The purification was performed using a modified procedure of earlier publication. E. coli strain DH5α was grown in Luria-Bertani broth at +37 °C with shaking (200 rpm) overnight. The cells were collected by centrifugation and the pellet was homogenized with Potter-Elvehjem in 10 volumes (w/v) of ice-cold 50 mM Tris-HCl pH 7.4, 1 mM DTT. The cell debris was removed by centrifugation at 12,000 g for 30 min at +4 °C. Solid (NH4)2SO4 was added to the supernatant, and the pellet precipitating between 39% and 53% saturation was separated. The precipitate was resuspended in ice-cold buffer containing 50 mM Tris-HCl pH 7.4 and 1 mM DTT and desalted by passage through Sephadex G-25 column (NAP-10 column, GE Healthcare). The protein concentration was measured with Bio-Rad protein reagent, and the partially purified enzyme preparation was mixed with 20% glycerol and aliquoted for storage at −80 °C.
[…] The ODC reaction mixture contained 50 mM Tris-HCl pH 7.8, 1 mM EDTA, 2.4 mM DTT, 0.1 mM PLP and 20 μg of partially purified enzyme preparation. The mixtures were either preincubated or not preincubated for 15 min at +40 °C in the presence of the inhibitor, after which the reaction was started by the addition of 18 μL of 10× substrate (L-Arg for ADC and L-Orn for ODC). After incubation for 30 min (ADC) or 20 min (ODC) at +40 °C, 20 μL of 50% sulphosalicylic acid containing 50 μM diaminoheptane (internal standard) was added and the samples were analyzed for the content of agmatine (ADC) and Put (ODC) with HPLC as described previously. The kinetic parameters and IC50 values were determined with the aid of GraphPad Prism version 5.03 using nonlinear regression analysis.

In series [3] the test system is Acremonium chrysogenum high-cephalosporin-yielding (HY) RNCM F-4081D. The experiment in a line: Fungal growth inhibition (drop-dilution, CD agar), HY strain. It is filed as cell-based. The source says: (§1) Two strains of Acremonium chrysogenum were used in this study: the wild-type (Brotzu) isolate ATCC 11550 (WT) and high-cephalosporin-yielding RNCM F-4081D (HY), derived from the WT [37]. The cultivation conditions were the same as previously described. The filamentous fungi were cultivated on agarized Czapek-Dox (CD) medium (30 g/L sucrose, 2 g/L NaNO3, 1 g/L K2HPO4, 0.5 g/L MgSO4×7 H2O, 0.5 g/L KCl, 0.01 g/L FeSO4×7 H2O, 20 g/L agar, pH 7.0–7.4). To determine the toxic effect of AO-Agm, APA, DFMA and DFMO on the growth of fungal cells the drop-dilution method was used with some modifications as described earlier. Cells were collected from agar slants and diluted with 0.9% NaCl solution up to OD600 = 0.5 (basic concentration), followed by serial tenfold dilutions with the same solution. […] The inoculated Petri dishes were incubated for 21 days at 26 °C. The inhibitory effects of the compounds were measured every three days after inoculation and evaluated by measuring the ratio of colony growth on agarized CD medium supplemented with AO-Agm, APA, DFMA, or DFMO to the growth in the control (agarized CD medium without any additions). The formula: growth inhibition % = [(Dc − Dt)/Dc] × 100, where Dc indicates the colony diameter in control set, and Dt indicates the colony diameter in the treatment set that was used to determine the percent of fungal growth inhibition. The data recorded were measured in triplicate and repeated at least twice.

Series [4] has as its system Acremonium chrysogenum wild-type (WT) ATCC 11550. The experiment in a line: Fungal growth inhibition (drop-dilution, CD agar), WT strain. The class given is cell-based.
Text: as §1

Another series has as its system mammalian ODC. Details: method as in PMID 3841480, PMID 1573631. The following applies: cited from earlier work.
The target of series [5] is T1, E. coli ADC. Also noted: method as in PMID 4571773. The following applies: cited from earlier work.
For the next series, the target named is T2, mouse kidney ODC (Mus musculus, UniProt P00860).
T2 construct: Aliquots of the supernatant were mixed with 1–5000 μM of AO-Agm and the ODC assay was carried out; from tissue; host or cells: C57Bl/6J male mouse kidney, 12,000 g supernatant of the homogenate
T2 sequence (P00860 1-461): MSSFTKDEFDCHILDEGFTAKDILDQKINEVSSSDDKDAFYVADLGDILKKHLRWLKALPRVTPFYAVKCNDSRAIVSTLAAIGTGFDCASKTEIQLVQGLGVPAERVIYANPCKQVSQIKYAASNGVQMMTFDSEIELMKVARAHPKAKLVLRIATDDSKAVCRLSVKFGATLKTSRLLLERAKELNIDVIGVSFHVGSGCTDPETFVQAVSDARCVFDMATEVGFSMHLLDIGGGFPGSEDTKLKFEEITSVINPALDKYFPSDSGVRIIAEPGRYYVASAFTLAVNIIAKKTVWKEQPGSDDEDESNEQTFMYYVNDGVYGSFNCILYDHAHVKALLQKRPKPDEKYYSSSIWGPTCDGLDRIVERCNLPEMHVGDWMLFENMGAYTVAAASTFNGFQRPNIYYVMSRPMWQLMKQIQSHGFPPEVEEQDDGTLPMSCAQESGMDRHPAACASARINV
Details: method as in PMID 6810923. Conditions: reversibly bound PLP; cited from earlier work.

As a reminder, the IC50 is the concentration needed to halve the response being measured. Low readings indicate greater potency, high ones weaker potency. The inhibition is the percentage by which the read-out fell short of the control. Consider `NCCCON` [APA, 1-aminooxy-3-aminopropane], for which, in series [1], the “Level remaining in the cell culture medium, of its initial concentration” value is listed as “about 10%”. In addition, the “ADC inhibition relative to AO-Agm (weaker)” value at E. coli ADC [2] is 1000 times. This compound came in with a concentration for half-maximal inhibition (IC50) on E. coli ADC [2] of 33 ± 2 µM. In addition, in series [3] (HY strain, 1 mM inhibitor), the “Growth inhibition compared with 5 mM” value is listed as “much less effective”. In addition, the inhibition at 5000 µM was 44% in series [3] (Hapsidospora chrysogena, 336 h, read-out: Growth inhibition) and 100% in series [4] (Hapsidospora chrysogena, ATCC11550, 336 h, 5 mM inhibitor, 14 days after inoculation on CD medium). For the same compound, in series [4] (5 mM inhibitor), the “Growth of WT strain” value is listed as “completely inhibited”. The “Effect of 0.5 mM Spd on the growth arrest caused by the inhibitor” value in series [4] (5 mM inhibitor + 0.5 mM Spd) is “reversed the growth arrest”. The inhibition at 1000 µM in series [4] (Hapsidospora chrysogena, ATCC11550, 1 mM inhibitor, 17th day after inoculation) is about 95%. The “Concentrations inhibiting mammalian ODC” value in the series on mammalian ODC is on record as “nanomolar inhibitor; also recorded: nanomolar concentrations”.

Broadly, the Km is the substrate concentration at which the rate is half of its maximum. As to `N=C(N)NCCC[C@H](N)C(=O)O` [L-Arg, L-arginine], at E. coli ADC [5] (pH 8.4), the Michaelis constant (Km) is 30 µM.

Take `Cc1ncc(COP(=O)(O)O)c(C=O)c1O` [PLP, pyridoxal-5’-phosphate]: the figures for the Km at mouse kidney ODC and at E. coli ADC [5] (PLP binding to the apo-enzyme) were 0.3 µM and 0.6 µM, respectively.
